Source: publication PMC7893793 (ACS Omega, 2021)

How the values were obtained:
[1] = Pharmacokinetic study in rats after oral administration of PbR extract; type: in vivo, rat; conditions: for AUC(0-inf) / AUC(0-t) / Cmax / MRT inf / MRT last / Tmax / half-life: male, Wistar, plasma, po, 5 g/kg; for AUC(0-inf) / AUC(0-t) / Cmax / MRT inf / MRT last / Tmax / half-life / absorption characteristics: rat; for absorption characteristics: oral administration of PbR
[2] = Stability of analytes in rat plasma samples; type: in vitro ADME; conditions: three freeze–thaw (−80 °C–room temperature) cycles, low, medium and high QC samples

AUC(0-inf) [1] [ng·h/mL] | AUC(0-t) [1] [ng·h/mL] | Cmax [1] [ng/mL] | MRT inf [1] [h] | MRT last [1] [h] | Tmax [1] [h] | half-life [1] [h] | absorption characteristics [1] | freeze–thaw stability in plasma samples [2] | detection in rat plasma ([1]; after oral administration of PbR at a dose of 0.5 g/100 g) | SMILES
63.2 ± 17.4 | 55.1 ± 15.5 | 24.4 ± 8.4 | 4.65 ± 1.43 | 3.12 ± 0.64 | 0.33 ± 0.13 | 3.33 ± 1.21 | good absorption characteristics | No significant degradation |  | COC(=O)C1=CO[C@@H](O[C@@H]2O[C@H](CO)[C@@H](O)[C@H](O)[C@H]2O)[C@H]2[C@@H]1[C@H](O)C[C@]2(C)OC(C)=O [barlerin]
 |  |  |  |  |  |  |  |  | neither of these were detected | C[C@@H]1O[C@@H](O[C@@H]2[C@@H](O)[C@H](OCCc3ccc(O)c(O)c3)O[C@H](COC(=O)/C=C/c3ccc(O)c(O)c3)[C@H]2O)[C@H](O)[C@H](O)[C@H]1O [isoacteoside]
159 ± 34.2 | 141 ± 33.4 | 41.6 ± 13.8 | 5.28 ± 0.73 | 3.84 ± 0.61 | 0.7 ± 0.14 | 3.59 ± 1.05 | good absorption characteristics | No significant degradation |  | COC(=O)C1=CO[C@@H](O[C@@H]2O[C@H](CO)[C@@H](O)[C@H](O)[C@H]2O)[C@H]2[C@@H]1[C@H](O)C[C@]2(C)O [shanzhiside methyl ester]
